Data published in publication PMC6572064, “Discovery of 2-(1-(3-(4-Chloroxyphenyl)-3-oxo- propyl)pyrrolidine-3-yl)-1H-benzo[d]imidazole-4-carboxamide: A Potent Poly(ADP-ribose) Polymerase (PARP) Inhibitor for Treatment of Cancer” (Molecules, 2019).
Read-outs that look alike come from different tables or passages of the source.

Tests used:
[1] = system: CAPAN-1 (a BRCA-2-mutated pancreatic cancer cell line); assay: Cell proliferation assay, three-day, CellTiter-Glo, CAPAN-1; assay type: cell-based; details: Homo sapiens; for IC50: CAPAN-1, 72 h, CellTiter-Glo, read-out: CAPAN-1 IC50; for inhibition at 0.00508 µM: CAPAN-1, 0.00508 uM; for inhibition at 0.0152 µM: CAPAN-1, 0.0152 uM; for inhibition at 0.0457 µM: CAPAN-1, 0.0457 uM; for inhibition at […]: CAPAN-1, 0.14 uM; for inhibition at 0.41 µM: CAPAN-1, 0.41 uM; for inhibition at 1.23 µM: CAPAN-1, 1.23 uM; for inhibition at 3.7 µM: CAPAN-1, 3.70 uM; for inhibition at 11.11 µM: CAPAN-1, 11.11 uM; for inhibition at 33.33 µM: CAPAN-1, 33.33 uM; for inhibition at 100 µM: CAPAN-1, 100.00 uM
Summary of the method: (§1)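 Luminescent ATP read-out (CellTiter-Glo, 60 min at room temperature) quantified viability after a 72 h compound exposure at 37 °C, 5% CO2. Compounds, diluted from DMSO stocks into growth medium, were added to cells plated the previous day.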

PARP-2 = target: T1, PARP-2 (Homo sapiens, UniProt Q9UGN5); assay: PARP-2 inhibition assay (PARP-2 Chemiluminescent Assay Kit, BPS Bioscience); assay type: biochemical; details: 10 nM compound
T1 construct: purchased BPS Bioscience 80552
Procedure: (§2) The PARP-1 and PARP-2 inhibition assays were performed in outsourcing, by a CRO company, Shanghai Medicilon Inc. (Shanghai, China). […] Briefly, PARP-1 or PARP-2 biotinylated substrate was incubated with compounds or solvent control at varying concentrations and an assay buffer containing the PARP-1 or PARP-2 enzyme.

PARP-1 = target: T2, PARP-1 (Homo sapiens, UniProt P09874); assay: PARP-1 inhibition assay (PARP-1 Chemiluminescent Assay Kit, BPS Bioscience); assay type: biochemical; details: 10 nM compound
T2 construct: purchased BPS Bioscience 80569
Procedure: as §2

[2] = system: MDA-MB-436 (a BRCA-1-mutated breast cancer cell line); assay: Cell proliferation assay, three-day, CellTiter-Glo, MDA-MB-436; assay type: cell-based; details: for inhibition at 0.00508 µM / inhibition at 0.0152 µM / inhibition at 0.0457 µM / inhibition at 0.41 µM / inhibition at 1.23 µM / inhibition at 3.7 µM / inhibition at 11.11 µM / inhibition at 33.33 µM / inhibition at 100 µM / IC50: Homo sapiens; for inhibition at 0.00508 µM: MDA-MB-436, MDA-MB-436, Conc. 0.00508 uM; for inhibition at 0.0152 µM: MDA-MB-436, MDA-MB-436, Conc. 0.0152 uM; for inhibition at 0.0457 µM: MDA-MB-436, MDA-MB-436, Conc. 0.0457 uM; for inhibition at 0.41 µM: MDA-MB-436, MDA-MB-436, Conc. 0.41 uM; for inhibition at 1.23 µM: MDA-MB-436, MDA-MB-436, Conc. 1.23 uM; for inhibition at 3.7 µM: MDA-MB-436, MDA-MB-436, Conc. 3.70 uM; for inhibition at 11.11 µM: MDA-MB-436, MDA-MB-436, Conc. 11.11 uM; for inhibition at 33.33 µM: MDA-MB-436, MDA-MB-436, Conc. 33.33 uM; for inhibition at 100 µM: MDA-MB-436, MDA-MB-436, Conc. 100.00 uM
Summary of the method: as §1

[3] = supplement sheet, read-out: 10 nM inhibition% PAPR-2
[4] = read-out: PARP-2 Inhibition % (10 nM)
[5] = supplement sheet, read-out: 10 nM inhibition% PAPR-1
[6] = read-out: PARP-1 Inhibition % (10 nM)
[7] = MDA-MB-436, 72 h, CellTiter-Glo, read-out: MDA-MB-436 IC50

T2 sequence (P09874 whole entry): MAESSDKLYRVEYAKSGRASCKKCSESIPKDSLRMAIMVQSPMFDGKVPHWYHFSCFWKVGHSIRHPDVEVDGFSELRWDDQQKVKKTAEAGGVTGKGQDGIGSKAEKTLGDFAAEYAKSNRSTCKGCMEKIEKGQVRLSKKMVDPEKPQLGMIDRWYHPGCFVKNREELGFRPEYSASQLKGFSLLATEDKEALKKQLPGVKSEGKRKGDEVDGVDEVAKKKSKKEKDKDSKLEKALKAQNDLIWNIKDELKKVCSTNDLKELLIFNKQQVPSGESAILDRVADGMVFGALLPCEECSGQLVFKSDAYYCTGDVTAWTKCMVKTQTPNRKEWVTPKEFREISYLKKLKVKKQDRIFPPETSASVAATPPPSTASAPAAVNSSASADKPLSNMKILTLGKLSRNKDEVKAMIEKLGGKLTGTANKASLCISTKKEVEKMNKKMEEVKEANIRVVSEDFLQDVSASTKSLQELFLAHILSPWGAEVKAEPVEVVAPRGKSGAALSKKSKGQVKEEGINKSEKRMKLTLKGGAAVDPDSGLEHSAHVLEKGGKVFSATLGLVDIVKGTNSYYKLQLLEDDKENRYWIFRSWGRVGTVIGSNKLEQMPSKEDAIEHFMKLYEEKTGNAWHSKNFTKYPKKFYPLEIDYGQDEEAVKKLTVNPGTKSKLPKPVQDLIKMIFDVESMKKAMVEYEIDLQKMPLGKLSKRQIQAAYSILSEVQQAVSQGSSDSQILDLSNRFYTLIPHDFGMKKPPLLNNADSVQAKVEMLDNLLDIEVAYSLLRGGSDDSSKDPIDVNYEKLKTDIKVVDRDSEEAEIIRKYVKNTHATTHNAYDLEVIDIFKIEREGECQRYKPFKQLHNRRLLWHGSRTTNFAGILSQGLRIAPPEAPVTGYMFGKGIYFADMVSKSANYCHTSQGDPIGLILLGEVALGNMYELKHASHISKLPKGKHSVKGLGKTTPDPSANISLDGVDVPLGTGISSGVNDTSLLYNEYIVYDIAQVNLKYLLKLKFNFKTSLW
T1 sequence (Q9UGN5 whole entry): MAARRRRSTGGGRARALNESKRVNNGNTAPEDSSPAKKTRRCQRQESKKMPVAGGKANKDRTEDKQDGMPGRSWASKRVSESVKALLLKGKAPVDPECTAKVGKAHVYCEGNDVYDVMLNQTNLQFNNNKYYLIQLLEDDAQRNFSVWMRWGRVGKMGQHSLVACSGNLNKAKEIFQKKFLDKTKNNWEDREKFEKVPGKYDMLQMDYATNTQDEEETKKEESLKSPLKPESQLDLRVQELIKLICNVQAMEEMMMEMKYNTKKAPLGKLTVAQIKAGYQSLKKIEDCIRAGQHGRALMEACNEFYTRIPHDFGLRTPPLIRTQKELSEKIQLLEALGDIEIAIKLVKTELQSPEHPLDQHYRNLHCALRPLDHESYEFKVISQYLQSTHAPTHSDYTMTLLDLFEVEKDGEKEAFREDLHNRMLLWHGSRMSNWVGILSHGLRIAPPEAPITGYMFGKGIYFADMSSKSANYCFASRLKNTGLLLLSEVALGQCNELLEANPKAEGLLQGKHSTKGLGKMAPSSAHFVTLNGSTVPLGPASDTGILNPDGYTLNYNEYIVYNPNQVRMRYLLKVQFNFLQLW

SMILES: NC(=O)c1cccc2[nH]c(C3CCN(CCCN4C(=O)c5ccccc5C4=O)C3)nc12 (centres unmarked) [Compound 5ce, 2-(1-(3-(1,3-Dioxoisoindolin-2-yl)propyl)pyrrolidin-3-yl)-1H-benzo[d]imidazole-4-carboxamide]
- IC50 [1]: > 100 µM
- inhibition at 0.00508 µM ([1]; replicate 1, read-out: Inh % 1): -4.4%
- inhibition at 0.00508 µM ([1]; replicate 2, read-out: Inh % 2): 0.4%
- inhibition at 0.0152 µM ([1]; replicate 1, read-out: Inh % 1): -2.3%
- inhibition at 0.0152 µM ([1]; replicate 2, read-out: Inh % 2): -0.9%
- inhibition at 0.0457 µM ([1]; replicate 1, read-out: Inh % 1): 1.8%
- inhibition at 0.0457 µM ([1]; replicate 2, read-out: Inh % 2): 10%
- inhibition at […] ([1]; replicate 1, read-out: Inh % 1): -0.6%
- inhibition at […] ([1]; replicate 2, read-out: Inh % 2): -2.2%
- inhibition at 0.41 µM ([1]; replicate 1, read-out: Inh % 1): 12.8%
- inhibition at 0.41 µM ([1]; replicate 2, read-out: Inh % 2): 3.7%
- inhibition at 1.23 µM ([1]; replicate 1, read-out: Inh % 1): 7.5%
- inhibition at 1.23 µM ([1]; replicate 2, read-out: Inh % 2): 3.7%
- inhibition at 3.7 µM ([1]; replicate 1, read-out: Inh % 1): 6.8%
- inhibition at 3.7 µM ([1]; replicate 2, read-out: Inh % 2): 9.9%
- inhibition at 11.11 µM ([1]; replicate 1, read-out: Inh % 1): 13.7%
- inhibition at 11.11 µM ([1]; replicate 2, read-out: Inh % 2): -0.541%
- inhibition at 33.33 µM ([1]; replicate 1, read-out: Inh % 1): 11%
- inhibition at 33.33 µM ([1]; replicate 2, read-out: Inh % 2): 3.9%
- inhibition at 100 µM ([1]; replicate 1, read-out: Inh % 1): 6.1%
- inhibition at 100 µM ([1]; replicate 2, read-out: Inh % 2): 4.5%
- inhibition at 0.01 µM (PARP-2; [3]): 74.6%
- inhibition at 0.01 µM (PARP-2; [4]): 74.5%
- inhibition at 0.01 µM (PARP-1; [5]): 22%
- inhibition at 0.01 µM (PARP-1; [6]): 22%
- inhibition at 0.00508 µM ([2]; replicate 1, read-out: Inh % 1): 20.1%
- inhibition at 0.00508 µM ([2]; replicate 2, read-out: Inh % 2): 0.9%
- inhibition at 0.0152 µM ([2]; replicate 1, read-out: Inh % 1): -2.8%
- inhibition at 0.0152 µM ([2]; replicate 2, read-out: Inh % 2): -5%
- inhibition at 0.0457 µM ([2]; replicate 1, read-out: Inh % 1): -11.2%
- inhibition at 0.0457 µM ([2]; replicate 2, read-out: Inh % 2): -11.9%
- inhibition at 0.41 µM ([2]; replicate 1, read-out: Inh % 1): -6.1%
- inhibition at 0.41 µM ([2]; replicate 2, read-out: Inh % 2): -15.6%
- inhibition at 1.23 µM ([2]; replicate 1, read-out: Inh % 1): -8.9%
- inhibition at 1.23 µM ([2]; replicate 2, read-out: Inh % 2): -17.5%
- inhibition at 3.7 µM ([2]; replicate 1, read-out: Inh % 1): -1.2%
- inhibition at 3.7 µM ([2]; replicate 2, read-out: Inh % 2): -9.2%
- inhibition at 11.11 µM ([2]; replicate 1, read-out: Inh % 1): 15.7%
- inhibition at 11.11 µM ([2]; replicate 2, read-out: Inh % 2): -2.9%
- inhibition at 33.33 µM ([2]; replicate 1, read-out: Inh % 1): -10.9%
- inhibition at 33.33 µM ([2]; replicate 2, read-out: Inh % 2): -11%
- inhibition at 100 µM ([2]; replicate 1, read-out: Inh % 1): 0.113%
- inhibition at 100 µM ([2]; replicate 2, read-out: Inh % 2): -9.4%
- IC50 [2, 7]: > 100 µM

SMILES: NC(=O)c1cccc2[nH]c(C3CCN(CC(O)c4ccccc4)C3)nc12 (centres unmarked) [Compound 5cf, 2-(1-(2-Hydroxy-2-phenylethyl)pyrrolidin-3-yl)-1H-benzo[d]imidazole-4-carboxamide]
- IC50 [1]: > 100 µM
- inhibition at 0.00508 µM ([1]; replicate 1, read-out: Inh % 1): -1.7%
- inhibition at 0.00508 µM ([1]; replicate 2, read-out: Inh % 2): -8.4%
- inhibition at 0.0152 µM ([1]; replicate 1, read-out: Inh % 1): 3.2%
- inhibition at 0.0152 µM ([1]; replicate 2, read-out: Inh % 2): -3.1%
- inhibition at 0.0457 µM ([1]; replicate 1, read-out: Inh % 1): -6.9%
- inhibition at 0.0457 µM ([1]; replicate 2, read-out: Inh % 2): -3.4%
- inhibition at […] ([1]; replicate 1, read-out: Inh % 1): 10.3%
- inhibition at […] ([1]; replicate 2, read-out: Inh % 2): -1.9%
- inhibition at 0.41 µM ([1]; replicate 1, read-out: Inh % 1): 9.4%
- inhibition at 0.41 µM ([1]; replicate 2, read-out: Inh % 2): 0.649%
- inhibition at 1.23 µM ([1]; replicate 1, read-out: Inh % 1): 5.9%
- inhibition at 1.23 µM ([1]; replicate 2, read-out: Inh % 2): 8.1%
- inhibition at 3.7 µM ([1]; replicate 1, read-out: Inh % 1): 13.8%
- inhibition at 3.7 µM ([1]; replicate 2, read-out: Inh % 2): 3.5%
- inhibition at 11.11 µM ([1]; replicate 1, read-out: Inh % 1): 7.2%
- inhibition at 11.11 µM ([1]; replicate 2, read-out: Inh % 2): -0.268%
- inhibition at 33.33 µM ([1]; replicate 1, read-out: Inh % 1): 15.8%
- inhibition at 33.33 µM ([1]; replicate 2, read-out: Inh % 2): -1.9%
- inhibition at 100 µM ([1]; replicate 1, read-out: Inh % 1): 29.7%
- inhibition at 100 µM ([1]; replicate 2, read-out: Inh % 2): 21.1%
- inhibition at 0.01 µM (PARP-2; [3]): 8.96%
- inhibition at 0.01 µM (PARP-2; [4]): 9%
- inhibition at 0.01 µM (PARP-1; [5]): 5.03%
- inhibition at 0.01 µM (PARP-1; [6]): 5%
- inhibition at 0.00508 µM ([2]; replicate 1, read-out: Inh % 1): -0.144%
- inhibition at 0.00508 µM ([2]; replicate 2, read-out: Inh % 2): -3.2%
- inhibition at 0.0152 µM ([2]; replicate 1, read-out: Inh % 1): -5.7%
- inhibition at 0.0152 µM ([2]; replicate 2, read-out: Inh % 2): -4.4%
- inhibition at 0.0457 µM ([2]; replicate 1, read-out: Inh % 1): -8.5%
- inhibition at 0.0457 µM ([2]; replicate 2, read-out: Inh % 2): -9.4%
- inhibition at 0.41 µM ([2]; replicate 1, read-out: Inh % 1): -14.6%
- inhibition at 0.41 µM ([2]; replicate 2, read-out: Inh % 2): -10.9%
- inhibition at 1.23 µM ([2]; replicate 1, read-out: Inh % 1): -9.9%
- inhibition at 1.23 µM ([2]; replicate 2, read-out: Inh % 2): -7%
- inhibition at 3.7 µM ([2]; replicate 1, read-out: Inh % 1): 1.6%
- inhibition at 3.7 µM ([2]; replicate 2, read-out: Inh % 2): -6.5%
- inhibition at 11.11 µM ([2]; replicate 1, read-out: Inh % 1): -3.4%
- inhibition at 11.11 µM ([2]; replicate 2, read-out: Inh % 2): -9.3%
- inhibition at 33.33 µM ([2]; replicate 1, read-out: Inh % 1): 17.3%
- inhibition at 33.33 µM ([2]; replicate 2, read-out: Inh % 2): 8.3%
- inhibition at 100 µM ([2]; replicate 1, read-out: Inh % 1): 86.9%
- inhibition at 100 µM ([2]; replicate 2, read-out: Inh % 2): 70.9%
- IC50 [2, 7]: 61 µM
- IC50 ([2]; MDA-MB-436, 72 h, supplement Summary sheet, read-out: IC50): 61 µM
- IC50 ([2]; MDA-MB-436, curve fit list, no unit in the cell, concentration in uM, read-out: IC50): 61 µM
- LogIC50 ([2]; MDA-MB-436, curve fit on Log (uM) concentrations): 1.786
- Top ([2]; MDA-MB-436, curve fit parameter (Inh %), '= 100.0' is a constrained value): 104.3
